Experimental data: ChEMBL document CHEMBL1165864, “Scavenging activity of aminoantipyrines against hydroxyl radical” (Eur J Med Chem, 2010)
The source made the active and inactive calls. The calls are words filed in the database; no cut-off is given here.

Test: Antioxidant activity assessed as hydroxyl radical scavenging activity at 10 mM at pH 7 by fenton reaction
Format: functional

Row | SMILES | Activity
1 | Cc1c(N)c(=O)n(-c2ccccc2)n1C | Active
2 | Cc1c(N(C)C)c(=O)n(-c2ccccc2)n1C | Active
3 | CNc1c(C)n(C)n(-c2ccccc2)c1=O | Active
